Data on two compounds can be found in patent US6699682B2, “Assay for inhibitors of fatty-acid amide hydrolase” (The Scripps Research Institute, priority 1995, dated 2004).

One experiment relates to neuroblastoma cells. Particulars: anandamide incubated with neuroblastoma cells; cited from earlier work.
Experiment [1] addresses T1, recombinant expressed rat FAAH (Rattus norvegicus, UniProt P97612).
T1 construct: expressed in transfected cells; host or cells: COS-7 cells, transient, pcDNA3; dounce-homogenised cell extract
T1 sequence (P97612 1-579): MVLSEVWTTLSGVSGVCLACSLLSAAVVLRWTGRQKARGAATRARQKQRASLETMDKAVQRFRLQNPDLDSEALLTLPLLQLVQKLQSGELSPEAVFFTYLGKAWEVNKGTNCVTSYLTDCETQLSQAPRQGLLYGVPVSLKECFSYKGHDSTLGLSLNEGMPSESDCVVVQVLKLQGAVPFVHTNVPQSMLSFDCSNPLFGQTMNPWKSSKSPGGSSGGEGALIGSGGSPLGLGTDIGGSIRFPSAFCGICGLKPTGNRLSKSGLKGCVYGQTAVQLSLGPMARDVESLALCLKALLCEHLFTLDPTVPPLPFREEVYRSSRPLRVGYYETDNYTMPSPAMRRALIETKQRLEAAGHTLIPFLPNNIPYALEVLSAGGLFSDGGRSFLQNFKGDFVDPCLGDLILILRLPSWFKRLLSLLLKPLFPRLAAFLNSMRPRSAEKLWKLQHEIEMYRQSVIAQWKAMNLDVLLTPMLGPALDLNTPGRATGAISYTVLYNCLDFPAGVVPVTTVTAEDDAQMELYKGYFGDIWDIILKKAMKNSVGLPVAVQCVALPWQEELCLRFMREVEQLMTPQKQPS
The experiment can be described thus: FAAH hydrolysis assays with 14C-labeled fatty acid amide substrates (TLC, scintillation counting). Format: biochemical. Particulars: 100 μM substrate. The procedure: Therefore, COS-7 cells transfected with the rat FAAH cDNA were assayed for anandamide hydrolase activity. To assess the enzymatic activity of the expressed recombinant fatty acid amide hydrolases of this invention on labeled anandamide, the following enzymatic assay was performed. ^14C-anandamide was synthesized as follows: 12.5 μCi (specific activity of 50 μCi/μM) of ^14C arachidonic acid (Moravek Biochemicals) was dissolved in 100 μl CH2Cl2, cooled to 0° C., and treated with excess oxalyl chloride. The reaction mixture was stirred at 25° C. for 6 hours, after which time the solvent was evaporated. The remaining residue was cooled to 0° C., treated with a large excess of ethanolamine, and stirred at 25° C. for 15 minutes. The reaction mixture was then partitioned between ethyl acetate and 2 M HCl, and the organic layer was washed with water and then evaporated to dryness. The resulting ^14C-anandamide was diluted with unlabeled anandamide to a final specific activity of 5 μCi/μM in ethanol. Approximately 1 μCi of ^14C-anandamide and 20 μl of dounce homogenized COS-7 cell extract were used for each anandamide hydrolase assay as detailed above for the oleamide hydrolase assays. Briefly, FAAH hydrolysis assays were conducted in triplicate with 100 μM substrate, 35 μg of rat transfected COS-7 cell protein for 5 minutes at 37° C. (except in the case of stearic amide, where due to low solubility, 20 μM substrate comparison to oleamide were conducted). Products were separated on TLC as described previously, scraped into scintillation fluid, and radioactivity was quantitated by scintillation counting. Substrate hydrolysis in the presence of equal amounts of untransfected COS-7 cell protein extract served as background control in all cases and was substracted from FAAH hydrolysis rates to give the data as presented below.
To further assess the substrate specificity spectrum of enyzmatic hydolytic activity of the recombinant expressed proteins of this invention, other ^14C-labeled fatty acid amides were synthesized as described in Section B6 and above for ^14C-oleamide, with the exception of anandamide as described.
Where indicated in the table the anandamide and oleamide hydrolysis rates are considered to be 100% of FAAH activity to which other fatty acid amide hydrolysis rates are compared.

For another experiment, the target named is T2, recombinant rat FAAH (Rattus norvegicus, UniProt P97612).
T2 construct: expressed in transfected cells; host or cells: COS-7 cells, transient, pcDNA3; dounce-homogenised cell extract
T2 sequence (P97612 1-579): T1 sequence (P97612 1-579)
The experiment can be described thus: oleamide hydrolase activity of rat FAAH-transfected COS-7 cell extract and its inhibition (TLC). Particulars: versus untransfected and control transfected cells. Format: biochemical. The protocol: The following thin layer chromatography (TLC) protocol is used for assaying cis-9,10 octadecenoamide hydrolysis activity, also referred to as fatty-acid amide hydrolase activity. Oleamide is first labeled with ^14C. To accomplish this, ^14C-Oleic acid (1-10 μM, Moravek Biochemicals, 5-50 μCi/μM) in CH2CL2 (200 μL, 0.005-0.05 M) at 0° C. was treated with excess oxalyl chloride and the reaction mixture was warmed to 25° C. for 6 hours. The reaction mixture was then concentrated under a constant stream of gaseous nitrogen and the remaining residue was cooled to 0° C. and treated with excess saturated aqueous ammonium hydroxide. After 5 minutes, the reaction mixture was partitioned between Et)Ac (1.5 mL) and 10% HCl (1.0 mL). The organic layer was then washed with water (1.0 mL) and concentrated under a constant stream of gaseous nitrogen to provide ^14C-oleamide in quantitative yield as judged by TLC (60% EtOAc in hexanes; oleamide Rf−0.2; oleic acid Rf−0.8). […]
While untransfected COS-7 cells contained negligible amounts of oleamide hydrolase activity, COS-7 cells transfected with the rat FAAH cDNA expressed high levels of oleamide hydrolase activity (FIG. 15A). The assay was performed as described in Section B where by TLC the conversion of oleamide to oleic acid was assessed. […]

With arachidonyl trifluoromethyl ketone, in the experiment with neuroblastoma cells, the “increase of anandamide levels in the presence of the inhibitor” value is given as 5 fold.
In the case of `CCCCC/C=C\C/C=C\C/C=C\C/C=C\CCCC(=O)NCCO` [Anandamide, arachidonylethanolamide], the “% of FAAH activity (anandamide hydrolysis rate = 100%)” value in experiment [1] is on record as 100%. Moreover, the “Rate of Hydrolysis” value in experiment [1] (35 μg transfected COS-7 cell protein, 5 minutes, 37° C.) came to 333 ± 30 nmol/min/mg. Moreover, the “conversion of labeled substrate by rat FAAH-transfected COS-7 cells (qualitative, TLC)” value at recombinant rat FAAH is recorded as “high levels of anandamide hydrolase activity”.
